Measurements: ChEMBL document CHEMBL4024786, “In Silico Fragment-Based Design Identifies Subfamily B1 Metallo-β-lactamase Inhibitors” (J Med Chem, 2018)
The source made the active and inactive calls. The rule behind the calls is not given here.

Target: Metallo-beta-lactamase type 2 (Klebsiella pneumoniae) (UniProt C7C422)
Assay: Inhibition of NDM-1 in Klebsiella pneumoniae ATCC 5055 assessed as potentiation of meropenem induced antibacterial activity by measuring meropenem MIC at 100 ug/ml after 18 to 24 hrs by broth microdilution method (reference value: >128 ug/ml)

Sequence of Metallo-beta-lactamase type 2 (Klebsiella pneumoniae) (C7C422 whole entry): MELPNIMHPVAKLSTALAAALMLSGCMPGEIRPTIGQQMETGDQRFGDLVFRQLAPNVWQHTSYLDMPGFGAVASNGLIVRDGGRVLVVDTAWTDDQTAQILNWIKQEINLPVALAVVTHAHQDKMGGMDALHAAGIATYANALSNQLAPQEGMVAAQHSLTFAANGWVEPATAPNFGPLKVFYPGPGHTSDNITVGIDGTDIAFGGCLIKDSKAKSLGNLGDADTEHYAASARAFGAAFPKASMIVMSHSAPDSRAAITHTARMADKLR

SMILES | MIC [µg/mL]
O=C(O)c1ccc(-c2ccsc2)cc1CS | 8
O=C(O)c1ccc(-c2ccco2)cc1CS | 64
O=C(O)c1ccc(-c2cc(C(F)(F)F)cc(C(F)(F)F)c2)cc1CS | > 128
O=C(O)c1ccc(-c2ccc3ccccc3c2)cc1CS | 32
CCc1ccc(-c2ccc(C(=O)O)c(CS)c2)cc1 | 64
O=C(O)c1ccc(-c2ccccc2)cc1CS | 32
CCOc1cccc(-c2ccc(C(=O)O)c(CS)c2)c1 | 16
O=C(O)c1ccc(Br)cc1CS | 64

Test system: Pseudomonas aeruginosa PAO1
Assay: Inhibition of recombinant Psedomonas aeruginosa PAO1 N-terminal His-tagged AmpC expressed in Escherichia coli BL21 (DE3) cells using FC5 as substrate preincubated up to 360 mins prior to substrate addition in presence or absence of Triton X-100 by fluorescence-based assay

SMILES | inhibition
O=C(O)c1ccc(-c2cccc(Cl)c2Cl)cc1CS | Active
O=C(O)c1ccc(-c2ccccc2Cl)cc1CS | Active

Test system: Liver
Assay: Drug metabolism in human liver microsomes
Format: ADME, microsome

SMILES | Drug metabolism
O=C(O)c1ccc(-c2ccccc2)cc1CS | Metabolite_Detected

Test system: not listed separately
Assay: Inhibition of recombinant bacterial NDM-1 expressed in Escherichia coli BL21 (DE3) cells using imipenem as substrate in presence of Triton X-100 by spectrophotometric analysis
Parameters: species or system Bacteria

SMILES | IC50 [nM]
O=C(O)c1ccc(-c2ccsc2)cc1CS | 6780
O=C(O)c1ccc(-c2cccc(Cl)c2Cl)cc1CS | 1160
O=C(O)c1ccc(-c2cccc(Cl)c2)cc1CS | 310
O=C(O)c1ccc(-c2ccccc2C(F)(F)F)cc1CS | 8820
O=C(O)c1ccc(-c2ccco2)cc1CS | 10200
O=C(O)c1ccc(-c2cc(C(F)(F)F)cc(C(F)(F)F)c2)cc1CS | 44000
O=C(O)c1ccc(-c2ccc3ccccc3c2)cc1CS | 2420
CCc1ccc(-c2ccc(C(=O)O)c(CS)c2)cc1 | 570
O=C(O)c1ccc(-c2ccc(F)cc2)cc1CS | 710
O=C(O)c1ccc(-c2ccccc2)cc1CS | 5590
O=C(O)c1ccc(-c2ccccc2Cl)cc1CS | 2850
O=C(O)c1ccc(-c2cccc(F)c2)cc1CS | 590
O=C(O)c1ccc(-c2ccc(Cl)cc2)cc1CS | 420
CCOc1cccc(-c2ccc(C(=O)O)c(CS)c2)c1 | 7590
O=C(O)c1ccc(Br)cc1CS | > 100000

Test system: Escherichia coli str. K-12 substr. MG1655
Assay: Inhibition of NDM-1 in Escherichia coli MG1655 assessed as potentiation of meropenem induced antibacterial activity by measuring meropenem MIC at 100 ug/ml after 18 to 24 hrs by broth microdilution method (reference value: >128 ug/ml)

SMILES | MIC [µg/mL]
O=C(O)c1ccc(-c2ccsc2)cc1CS | 16
O=C(O)c1ccc(-c2ccco2)cc1CS | 32
O=C(O)c1ccc(-c2cc(C(F)(F)F)cc(C(F)(F)F)c2)cc1CS | > 128
O=C(O)c1ccc(-c2ccc3ccccc3c2)cc1CS | 32
CCc1ccc(-c2ccc(C(=O)O)c(CS)c2)cc1 | 32
O=C(O)c1ccc(-c2ccccc2)cc1CS | 16
CCOc1cccc(-c2ccc(C(=O)O)c(CS)c2)c1 | 64
O=C(O)c1ccc(Br)cc1CS | 32

Test system: not listed separately
Assay: Inhibition of recombinant bacterial Bc2 expressed in Escherichia coli BL21 (DE3) cells using FC5 as substrate preincubated for 10 mins prior to substrate addition by fluorescence-based assay
Parameters: species or system Bacteria

SMILES | IC50 [µM]
O=C(O)c1ccc(-c2cccc(Cl)c2)cc1CS | 0.78 to 7.8
O=C(O)c1ccc(-c2ccc(F)cc2)cc1CS | 0.78 to 7.8
O=C(O)c1ccc(-c2ccccc2Cl)cc1CS | 0.78 to 7.8
O=C(O)c1ccc(-c2cccc(F)c2)cc1CS | 0.78 to 7.8
O=C(O)c1ccc(-c2ccc(Cl)cc2)cc1CS | 0.78 to 7.8

Target: T1, 5' exonuclease Apollo (Homo sapiens, UniProt Q9H816)
T1 sequence (Q9H816 whole entry): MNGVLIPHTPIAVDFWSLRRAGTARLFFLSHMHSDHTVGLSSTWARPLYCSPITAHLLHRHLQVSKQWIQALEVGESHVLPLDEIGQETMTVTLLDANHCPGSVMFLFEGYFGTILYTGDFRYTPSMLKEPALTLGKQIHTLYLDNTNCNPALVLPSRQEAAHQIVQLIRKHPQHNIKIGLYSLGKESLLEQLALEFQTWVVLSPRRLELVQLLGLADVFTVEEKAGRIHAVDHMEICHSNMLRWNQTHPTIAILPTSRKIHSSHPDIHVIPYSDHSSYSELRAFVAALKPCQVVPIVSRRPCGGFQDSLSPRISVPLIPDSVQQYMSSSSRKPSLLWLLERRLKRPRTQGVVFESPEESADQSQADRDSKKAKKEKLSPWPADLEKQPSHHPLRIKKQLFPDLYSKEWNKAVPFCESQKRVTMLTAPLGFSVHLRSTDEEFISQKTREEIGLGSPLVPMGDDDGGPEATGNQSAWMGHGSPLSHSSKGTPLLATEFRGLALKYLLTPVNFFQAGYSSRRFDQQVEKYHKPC
Assay: Inhibition of human DCLRE1B

SMILES | IC50 [µM]
O=C(O)c1ccc(-c2cccc(Cl)c2)cc1CS | 268
O=C(O)c1ccc(-c2ccccc2)cc1CS | 149
O=C(O)c1ccc(-c2cccc(F)c2)cc1CS | 185

Test system: not listed separately
Assay: Inhibition of recombinant bacterial SPM-1 expressed in Escherichia coli BL21 (DE3) cells using FC5 as substrate preincubated for 10 mins prior to substrate addition by fluorescence-based assay
Parameters: species or system Bacteria

SMILES | IC50 [µM]
O=C(O)c1ccc(-c2cccc(Cl)c2)cc1CS | 0.78 to 7.8
O=C(O)c1ccc(-c2ccc(F)cc2)cc1CS | 0.78 to 7.8
O=C(O)c1ccc(-c2ccccc2Cl)cc1CS | 0.78 to 7.8
O=C(O)c1ccc(-c2cccc(F)c2)cc1CS | 0.78 to 7.8
O=C(O)c1ccc(-c2ccc(Cl)cc2)cc1CS | 0.78 to 7.8

Test system: not listed separately
Assay: Inhibition of recombinant bacterial IMP-1 expressed in Escherichia coli BL21 (DE3) cells using FC4 as substrate preincubated for 10 mins prior to substrate addition in presence of Triton X-100 by fluorescence-based assay
Parameters: species or system Bacteria

SMILES | IC50 [nM]
O=C(O)c1ccc(-c2ccsc2)cc1CS | 180
O=C(O)c1ccc(-c2cccc(Cl)c2Cl)cc1CS | 370
O=C(O)c1ccc(-c2cccc(Cl)c2)cc1CS | 140
O=C(O)c1ccc(-c2ccccc2C(F)(F)F)cc1CS | 480
O=C(O)c1ccc(-c2ccco2)cc1CS | 390
O=C(O)c1ccc(-c2cc(C(F)(F)F)cc(C(F)(F)F)c2)cc1CS | 1720
O=C(O)c1ccc(-c2ccc3ccccc3c2)cc1CS | 220
CCc1ccc(-c2ccc(C(=O)O)c(CS)c2)cc1 | 50
O=C(O)c1ccc(-c2ccc(F)cc2)cc1CS | 300
O=C(O)c1ccc(-c2ccccc2)cc1CS | 230
O=C(O)c1ccc(-c2ccccc2Cl)cc1CS | 300
O=C(O)c1ccc(-c2cccc(F)c2)cc1CS | 390
O=C(O)c1ccc(-c2ccc(Cl)cc2)cc1CS | 60
CCOc1cccc(-c2ccc(C(=O)O)c(CS)c2)c1 | 320
O=C(O)c1ccc(Br)cc1CS | 800

Test system: not listed separately
Assay: Aqueous solubility of the compound in phosphate buffer at pH 7.0
Format: physicochemical

SMILES | solubility
O=C(O)c1ccc(-c2ccccc2)cc1CS | Soluble

Test system: Bacteria
Assay: Binding affinity to recombinant bacterial VIM-2 expressed in Escherichia coli BL21 (DE3) cells at 50 uM in presence of 4-(2,3-dichlorophenyl)-2-(sulfonylmethyl)benzoic acid by NMR method

SMILES | Activity
O=C(O)c1ccc(-c2cc(C(F)(F)F)cc(C(F)(F)F)c2)cc1CS | inactive

Target: Beta-lactamase OXA-10 (Pseudomonas aeruginosa, UniProt P14489)
Assay: Inhibition of recombinant Pseudomonas aeruginosa OXA-10 expressed in Escherichia coli BL21 (DE3) cells using FC5 as substrate preincubated up to 360 mins prior to substrate addition by fluorescence-based assay

Sequence of Beta-lactamase OXA-10 (P14489 whole entry): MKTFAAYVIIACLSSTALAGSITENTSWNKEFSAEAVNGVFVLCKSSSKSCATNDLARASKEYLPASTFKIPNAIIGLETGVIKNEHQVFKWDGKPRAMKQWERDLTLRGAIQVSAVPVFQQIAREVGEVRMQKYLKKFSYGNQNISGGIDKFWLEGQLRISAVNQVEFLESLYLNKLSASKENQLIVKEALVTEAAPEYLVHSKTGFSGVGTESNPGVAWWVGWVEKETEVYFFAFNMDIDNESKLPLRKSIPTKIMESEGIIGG

SMILES | IC50 [µM]
O=C(O)c1ccc(-c2cccc(Cl)c2Cl)cc1CS | 37.3

Test system: not listed separately
Assay: Binding affinity to recombinant bacterial VIM-2 expressed in Escherichia coli BL21 (DE3) cells by NMR method
Parameters: species or system Bacteria

SMILES | Kd [nM]
O=C(O)c1ccc(-c2cccc(Cl)c2Cl)cc1CS | < 1000

Target: Beta-lactamase TEM (Bacteria, UniProt P62593)
Assay: Inhibition of recombinant N-terminal His-tagged bacterial Escherichia coli TEM-1 (24 to 286 residues) expressed in Escherichia coli BL21 (DE3) cells using FC5 as substrate preincubated up to 360 mins prior to substrate addition by fluorescence-based assay

Sequence of Beta-lactamase TEM (P62593 whole entry, the tested form may be a part): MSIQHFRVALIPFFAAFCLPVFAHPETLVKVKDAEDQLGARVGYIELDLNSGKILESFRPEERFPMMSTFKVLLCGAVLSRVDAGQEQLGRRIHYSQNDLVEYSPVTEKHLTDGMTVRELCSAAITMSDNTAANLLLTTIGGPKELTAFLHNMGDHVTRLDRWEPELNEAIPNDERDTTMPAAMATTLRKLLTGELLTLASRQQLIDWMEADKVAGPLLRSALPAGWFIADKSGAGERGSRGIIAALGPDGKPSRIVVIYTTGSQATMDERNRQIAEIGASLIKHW

SMILES | IC50 [µM]
O=C(O)c1ccc(-c2cccc(Cl)c2Cl)cc1CS | 5.5
O=C(O)c1ccc(-c2ccc(F)cc2)cc1CS | 32.8

Test system: not listed separately
Assay: Inhibition of recombinant bacterial VIM-2 expressed in Escherichia coli BL21 (DE3) cells using FC4 as substrate preincubated for 10 mins prior to substrate addition in presence of Triton X-100 by fluorescence-based assay
Parameters: species or system Bacteria

SMILES | IC50 [nM]
O=C(O)Cc1ccccc1S | > 100000
O=C1SCc2cc(-c3ccccc3)ccc21 | > 100000
O=C(O)c1ccc(-c2ccsc2)cc1CS | 170
O=C(O)c1ccc(-c2cccc(Cl)c2Cl)cc1CS | 40
O=C(O)c1ccc(-c2cccc(Cl)c2)cc1CS | 70
O=C(O)c1ccc(-c2ccccc2C(F)(F)F)cc1CS | 150
O=C(O)c1ccc(-c2ccco2)cc1CS | 360
O=C(O)c1ccc(-c2cc(C(F)(F)F)cc(C(F)(F)F)c2)cc1CS | 450
O=C(O)c1ccc(-c2ccc3ccccc3c2)cc1CS | 70
CCc1ccc(-c2ccc(C(=O)O)c(CS)c2)cc1 | 100
O=C(O)c1ccc(-c2ccc(F)cc2)cc1CS | 230
O=C(O)c1ccc(-c2ccccc2)cc1CS | 230
O=C(O)c1ccc(-c2ccccc2Cl)cc1CS | 180
O=C(O)c1ccc(-c2cccc(F)c2)cc1CS | 200
O=C(O)c1ccc(-c2ccc(Cl)cc2)cc1CS | 100
CCOc1cccc(-c2ccc(C(=O)O)c(CS)c2)c1 | 180
O=C(O)c1ccc(Br)cc1CS | 170
